Key:
[1] = Solubility testing (dissolution time) of purified 4-hydroxyacetophenone (0.5 wt.-%) in cold 1,2-pentanediol (5 wt.-%) in water; type: physicochemical; details: for Time needed until purified 4-HAP is fully dissolved: 0.5 wt.-% 4-HAP, 5 wt.-% 1,2-pentanediol, 94.50 wt.-% water, solvent at 17.5-18.5° C., stirred at 500 rpm at 20-21° C.
[2] = Solubility testing (dissolution time) of purified 4-hydroxyacetophenone (0.5 wt.-%) in cold water; type: physicochemical; details: for Time needed until purified 4-HAP is fully dissolved: 0.5 wt.-% 4-HAP, 99.50 wt.-% water, solvent at 17.5-18.5° C., stirred at 500 rpm at 20-21° C.
[3] = Solubility testing (dissolution time) of purified 4-hydroxyacetophenone (0.5 wt.-%) in cold 1,2-pentanediol (3 wt.-%) and glycerin (5 wt.-%) in water; type: physicochemical; details: for Time needed until purified 4-HAP is fully dissolved: 0.5 wt.-% 4-HAP, 3 wt.-% 1,2-pentanediol, 5 wt.-% glycerin (99.5%), 91.50 wt.-% water, solvent at 17.5-18.5° C., stirred at 500 rpm at 20-21° C.
Pseudomonas aeruginosa = details: when used in cosmetics; Daily Chemical Industry: 2015, 45:269; cited from earlier work
Aspergillus brasiliensis = details: when used in cosmetics; Daily Chemical Industry: 2015, 45:269; cited from earlier work

SMILES: CC(=O)c1ccc(O)cc1 [Example 2, 4-hydroxyacetophenone]
- Time needed until purified 4-HAP is fully dissolved [1]: 56 min
- Time needed until purified 4-HAP is fully dissolved [2]: 115 min
- Time needed until purified 4-HAP is fully dissolved [3]: 53 min

SMILES: CC(=O)c1ccc(O)cc1 [4-hydroxyacetophenone]
- ability to restrain Pseudomonas aeruginosa (Pseudomonas aeruginosa): a certain ability to restrain
- ability to kill Aspergillus brasiliensis (Aspergillus brasiliensis): great ability to kill

SMILES: CC(=O)c1ccc(O)cc1 [Example 1b, 4-hydroxyacetophenone]
- Time needed until purified 4-HAP is fully dissolved [2]: 22 min
- dissolution time in cold water (in words, compared with the other samples) [2]: by far the shortest dissolution time
- Time needed until purified 4-HAP is fully dissolved [3]: 19 min
- dissolution time in cold 1,2-pentanediol (3 wt.-%) and glycerin (5 wt.-%) in water (in words, compared with the other samples) [3]: by far the shortest dissolution time

SMILES: CC(=O)c1ccc(O)cc1 [Example 10, 4-hydroxyacetophenone]
- Time needed until purified 4-HAP is fully dissolved [2]: 67 min
- Time needed until purified 4-HAP is fully dissolved [3]: 42 min

SMILES: CC(=O)c1ccc(O)cc1 [Example 6, 4-hydroxyacetophenone]
- Time needed until purified 4-HAP is fully dissolved [1]: 35 min
- Time needed until purified 4-HAP is fully dissolved [3]: 28 min

SMILES: CC(=O)c1ccc(O)cc1 [Example 5, 4-hydroxyacetophenone]
- Time needed until purified 4-HAP is fully dissolved [1]: 26 min
- Time needed until purified 4-HAP is fully dissolved [2]: 35 min
- Time needed until purified 4-HAP is fully dissolved [3]: 22 min

SMILES: CC(=O)c1ccc(O)cc1 [Example 3, 4-hydroxyacetophenone]
- Time needed until purified 4-HAP is fully dissolved [1]: 22 min
- Time needed until purified 4-HAP is fully dissolved [2]: 35 min
- Time needed until purified 4-HAP is fully dissolved [3]: 30 min

SMILES: CC(=O)c1ccc(O)cc1 [Example 9, 4-hydroxyacetophenone]
- Time needed until purified 4-HAP is fully dissolved [1]: 17 min
- Time needed until purified 4-HAP is fully dissolved [2]: 29 min
- Time needed until purified 4-HAP is fully dissolved [3]: 21 min

SMILES: CC(=O)c1ccc(O)cc1 [Example 7, 4-hydroxyacetophenone]
- Time needed until purified 4-HAP is fully dissolved [1]: 36 min
- Time needed until purified 4-HAP is fully dissolved [2]: 51 min
- Time needed until purified 4-HAP is fully dissolved [3]: 33 min

SMILES: CC(=O)c1ccc(O)cc1 [Example 4, 4-hydroxyacetophenone]
- Time needed until purified 4-HAP is fully dissolved [1]: 33 min
- Time needed until purified 4-HAP is fully dissolved [2]: 41 min
- Time needed until purified 4-HAP is fully dissolved [3]: 24 min

SMILES: CC(=O)c1ccc(O)cc1 [Example 1a, 4-hydroxyacetophenone]
- Time needed until purified 4-HAP is fully dissolved [1]: 12 min
- dissolution time in cold 1,2-pentanediol (5 wt.-%) in water (in words, compared with the other samples) ([1]; cold 1,2-pentanediol (5 wt.-%) in water): by far the shortest dissolution time
- Time needed until purified 4-HAP is fully dissolved [2]: 24 min
- dissolution time in cold water (in words, compared with the other samples) [2]: by far the shortest dissolution time
- Time needed until purified 4-HAP is fully dissolved [3]: 15 min
- dissolution time in cold 1,2-pentanediol (3 wt.-%) and glycerin (5 wt.-%) in water (in words, compared with the other samples) [3]: by far the shortest dissolution time

SMILES: CC(=O)c1ccc(O)cc1 [Example 8, 4-hydroxyacetophenone]
- Time needed until purified 4-HAP is fully dissolved [1]: 29 min
- Time needed until purified 4-HAP is fully dissolved [2]: 44 min
- Time needed until purified 4-HAP is fully dissolved [3]: 27 min
